According to US20050075400A1, “Polymorphic forms of nateglinide” (priority 2002, published 2005):
Read-outs that look alike come from different tables or passages of the source.

Experiments:
[1] = Thermal stability / form transformation on heating or drying (XRPD); format: physicochemical; details: for form obtained upon drying / heating: heating under ambient or reduced pressure, generally about 40-80° C.; for form after heating at about 100° C.: 100° C. oil bath, 8.5 h; for form after heating at about 100° C. / form after heating at 120° C.: XRPD; for form after heating at 120° C.: 1 h, atmospheric pressure
Procedure: The various crystalline forms are related to each other in that drying of one form may result in a transformation to another form, namely nateglinide Forms A, B, D, E, F, G, H, I, J, K, L, M, N, Q, S, T, V, Z, α, β, δ, γ, ε, θ and Ω. The drying is carried out by heating a sample under ambient or reduced pressure. Generally, a preferred temperature is from about 40° C. to about 80° C., more preferably under reduced pressure. […] The term “stable” as used herein refers to a polymorphic change of less than about 5% by weight, more preferably less than about 2%, particularly for Form δ.
Sample of nateglinide form U (˜1 g) was introduced into a 6-gram vial and heated over 8.5 h in a 100° C. oil bath. The vial were extracted from the bath.
Sample of nateglinide form U (˜0.5 g) was heated to 120° C. for 1 h in an atmospheric pressure.
Sample of nateglinide form δ (˜0.5 g) was heated to 120° C. for 1 h in an atmospheric pressure.

[2] = Polymorphic stability on storage at room temperature for 24 h (XRPD); format: physicochemical; details: for crystal form after storage at RT for 24 h: room temperature and pressure, 24 h (about a day), open bottle, XRPD
Procedure: The various crystalline forms are also analyzed by Thermal Gravimetric Analysis (TGA). […] In contrast to the above listed forms, TGA profiles of forms L, P, U, α, δ and σ show no significant weight loss. These polymorphic forms of nateglinide are free of bound solvents, i.e., less than about 2% LOD. Table II lists the solvents used for the preparation for nateglinide solvated forms, as well as LOD values based on TGA analysis.
Storage at room temperature and pressure may also cause a transition of one form to another.
X-Ray diffraction was performed on X-Ray powder diffractometer, Scintag variable goniometer, Cu-tube, solid state detector. Sample holder: A round standard aluminum sample holder with round zero background quartz plate.
The sample was put on the sample holder and immediately analyzed as is. Scanning parameters: Range: 2-40 deg 2θ, Continuos Scan, Rate: 3 deg./min.

[3] = demonstrated by DSC; cited from earlier work
[4] = Absorption of solvent vapors by nateglinide Form H; format: physicochemical; details: for Δ (overweight): room temperature, 4 d
Procedure: Nateglinide (3.50 g) was added to a polypropylene can and weighed. The can was introduced into a bigger polypropylene container containing a solvent, and stored at room temperature. The can was removed from the container and weighed (Wfinal). The can content was divided into 2 portions. One portion was dried at a temperature of 55° C. and a pressure of 20-30 mmHg to constant weight (±0.01 g).

[5] = Stability at about 40° C. and about 75% relative humidity; format: physicochemical; details: about 40° C., relative humidity about 75%
Procedure: Crystalline Form δ is stable at a temperature of about 40° C. and a relative humidity of about 75% for at least about 3 months.

[6] = cited from earlier work

## CC(C)[C@H]1CC[C@H](C(=O)N[C@H](Cc2ccccc2)C(=O)O)CC1 [Form A, nateglinide]
[1]
  form obtained upon drying / heating: convert to Form B
[1]; listed as Form a
  form obtained upon drying / heating: Form S
[2]
  crystal form after storage at RT for 24 h: partially converts to Form B
[2]; listed as A
  crystal form after storage at RT for 24 h: conversion to Form B

## CC(C)[C@H]1CC[C@H](C(=O)N[C@H](Cc2ccccc2)C(=O)O)CC1 [Form B, nateglinide]
[1]
  thermal stability (conversion to another form upon heating): thermally stable
[3]
  stability during grinding: unstable and susceptible to change during grinding

## CC(C)[C@H]1CC[C@H](C(=O)N[C@H](Cc2ccccc2)C(=O)O)CC1 [Form C, nateglinide]
[1]
  form obtained upon drying / heating: convert to Form B

## CC(C)[C@H]1CC[C@H](C(=O)N[C@H](Cc2ccccc2)C(=O)O)CC1 [Form E, nateglinide]
[1]
  form obtained upon drying / heating: convert to Form B

## CC(C)[C@H]1CC[C@H](C(=O)N[C@H](Cc2ccccc2)C(=O)O)CC1 [Form F, nateglinide]
[1]
  form obtained upon drying / heating: convert to a mixture of Form B and G

## CC(C)[C@H]1CC[C@H](C(=O)N[C@H](Cc2ccccc2)C(=O)O)CC1 [Form G, nateglinide]
[1]
  form obtained upon drying / heating: convert to Form B

## CC(C)[C@H]1CC[C@H](C(=O)N[C@H](Cc2ccccc2)C(=O)O)CC1 [Form H, nateglinide]
[1]
  thermal stability (conversion to another form upon heating): thermally stable
[4]; Acetone vapors, 3.50 g NTG
  Δ (overweight): 0.08
[4]; DCM vapors, 3.49 g NTG
  Δ (overweight): 0.04
[4]; EtOH vapors, 3.50 g NTG
  Δ (overweight): 0.52
[4]; MeOH vapors, 3.50 g NTG
  Δ (overweight): 0.18
[4]; Water vapors, 3.50 g NTG
  Δ (overweight): 0.02
[4]; vapors of water and acetone
  stability in the presence of solvent vapors: stable

## CC(C)[C@H]1CC[C@H](C(=O)N[C@H](Cc2ccccc2)C(=O)O)CC1 [Form I, nateglinide]
[2]
  crystal form after storage at RT for 24 h: converts to Form L
[2]; listed as I
  crystal form after storage at RT for 24 h: Form L

## CC(C)[C@H]1CC[C@H](C(=O)N[C@H](Cc2ccccc2)C(=O)O)CC1 [Form J, nateglinide]
[1]
  form obtained upon drying / heating: convert to Form B
[2]; room temperature, overnight
  XRD pattern after storage at RT for overnight: XRD pattern slightly

## CC(C)[C@H]1CC[C@H](C(=O)N[C@H](Cc2ccccc2)C(=O)O)CC1 [Form L, nateglinide]
[1]
  thermal stability (conversion to another form upon heating): thermally stable

## CC(C)[C@H]1CC[C@H](C(=O)N[C@H](Cc2ccccc2)C(=O)O)CC1 [Form M, nateglinide]
[1]
  form obtained upon drying / heating: Form L

## CC(C)[C@H]1CC[C@H](C(=O)N[C@H](Cc2ccccc2)C(=O)O)CC1 [Form N, nateglinide]
[1]
  form obtained upon drying / heating: Form L

## CC(C)[C@H]1CC[C@H](C(=O)N[C@H](Cc2ccccc2)C(=O)O)CC1 [Form O, nateglinide]
[1]
  thermal stability (conversion to another form upon heating): somewhat stable

## CC(C)[C@H]1CC[C@H](C(=O)N[C@H](Cc2ccccc2)C(=O)O)CC1 [Form Q, nateglinide]
[1]
  form obtained upon drying / heating: convert to Form B
[2]
  crystal form after storage at RT for 24 h: converts to Form Y
[2]; listed as Q
  crystal form after storage at RT for 24 h: Form Y, which contains

## CC(C)[C@H]1CC[C@H](C(=O)N[C@H](Cc2ccccc2)C(=O)O)CC1 [Form T, nateglinide]
[1]
  form obtained upon drying / heating: convert to a mixture of Form B and G
[2]
  crystal form after storage at RT for 24 h: converts to Form E
[2]; listed as T
  crystal form after storage at RT for 24 h: Form E

## CC(C)[C@H]1CC[C@H](C(=O)N[C@H](Cc2ccccc2)C(=O)O)CC1 [Form U, nateglinide]
[1]
  thermal stability (conversion to another form upon heating): thermally stable
  form after heating at about 100° C.: does not undergo a transition
  form after heating at 120° C.: Form U
[1]; listed as form U
  form after heating at about 100° C.: Form U

## CC(C)[C@H]1CC[C@H](C(=O)N[C@H](Cc2ccccc2)C(=O)O)CC1 [Form V, nateglinide]
[1]
  form obtained upon drying / heating: Form H

## CC(C)[C@H]1CC[C@H](C(=O)N[C@H](Cc2ccccc2)C(=O)O)CC1 [Form Y, nateglinide]
[1]
  thermal stability (conversion to another form upon heating): somewhat stable

## CC(C)[C@H]1CC[C@H](C(=O)N[C@H](Cc2ccccc2)C(=O)O)CC1 [Form Z, nateglinide]
[1]
  form obtained upon drying / heating: convert to Form B

## CC(C)[C@H]1CC[C@H](C(=O)N[C@H](Cc2ccccc2)C(=O)O)CC1 [Form Ω, nateglinide]
[1]; 50° C., vacuum oven, overnight, XRD
  form after drying in a vacuum oven: mixture of Form omega and Form Z
[1]
  form obtained upon drying / heating: convert to Form B

## CC(C)[C@H]1CC[C@H](C(=O)N[C@H](Cc2ccccc2)C(=O)O)CC1 [Form α, nateglinide]
[1]
  thermal stability (conversion to another form upon heating): somewhat stable
  form obtained upon drying / heating: convert to Form B

## CC(C)[C@H]1CC[C@H](C(=O)N[C@H](Cc2ccccc2)C(=O)O)CC1 [Form β, nateglinide]
[1]
  form obtained upon drying / heating: convert to Form B

## CC(C)[C@H]1CC[C@H](C(=O)N[C@H](Cc2ccccc2)C(=O)O)CC1 [Form δ, nateglinide]
[1]
  thermal stability (conversion to another form upon heating): somewhat stable
  form after heating at 120° C.: results in Form B
  form obtained upon drying / heating: convert to Form B
[1]; 60 mmHg vacuum, 60° C., 6 hours
  polymorph after drying in a stirred reactor: remained delta form
[1]; 60° C., overnight (at least about 8 hours)
  stability when heated to 60° C. overnight: stable
[1]; listed as form δ
  form after heating at 120° C.: Form B
[1]; 4 hours at 60° C.
  polymorphic form after drying in a fluidized bed drier: delta
[5]
  time for which the crystalline form is stable: at least 3 months

## CC(C)[C@H]1CC[C@H](C(=O)N[C@H](Cc2ccccc2)C(=O)O)CC1 [Form ε, nateglinide]
[1]
  form obtained upon drying / heating: Form H

## CC(C)[C@H]1CC[C@H](C(=O)N[C@H](Cc2ccccc2)C(=O)O)CC1 [Form θ, nateglinide]
[1]
  form obtained upon drying / heating: convert to Form B

## CC(C)[C@H]1CC[C@H](C(=O)N[C@H](Cc2ccccc2)C(=O)O)CC1 [Form σ, nateglinide]
[1]
  thermal stability (conversion to another form upon heating): thermally stable

## CC(C)[C@H]1CC[C@H](C(=O)N[C@H](Cc2ccccc2)C(=O)O)CC1 [acetonitrile solvate of Form Epsilon, nateglinide]
[1]
  form obtained upon drying / heating: Form B

## CC(C)[C@H]1CC[C@H](C(=O)N[C@H](Cc2ccccc2)C(=O)O)CC1 [nateglinide, (−)—N-(trans-4-isopropylcyclohexanecarbonyl)-D-Phenylalanine]
[6]; in acetonitrile
  solubility: sparingly soluble
[6]; in chloroform
  solubility: freely soluble
[6]; in ethanol
  solubility: freely soluble
[6]; in ether
  solubility: soluble
[6]; in methanol
  solubility: freely soluble
[6]; in octanol
  solubility: sparingly soluble
[6]; in water
  solubility: practically insoluble

## CC(C)[C@H]1CC[C@H](C(=O)N[C@H](Cc2ccccc2)C(=O)O)CC1 [nitromethane solvates of Form Epsilon, nateglinide]
[1]
  form obtained upon drying / heating: Forms H or P
